Results taken from US20130123287A1, “CONTROL AGENT FOR SOFT ROT AND CONTROL METHOD FOR THE SAME” (ISHIHARA SANGYO KAISHA, LTD., priority 2010, published 2013).

Legend:
Type in all cases: cell-based
[1] = system: bacteria causing the soft rot (Erwinia carotovora); assay: Inhibition test of growth of bacteria causing soft rot, Reference Test Example 1; details: for formed colonies (growth state), grade: PSA medium, 25 degrees Celsius, 4 days
Method: (§1) An inhibition test of the growth of bacteria causing the soft rot was done, when a control agent was directly applied to the bacteria causing the soft rot. A given volume of each pesticide of cyazofamid (RANMAN 400SC [trade name] manufactured by Ishihara Sangyo Kaisha, Ltd.), amisulbrom (LEIMAY FLOWABLE [trade name], manufactured by Nissan Chemical Industries, Ltd.) and streptomycin (Mycin Wettable powder [trade name] manufactured by Hokko Chemical Industry Co., Ltd.) was added together with a suspension of the bacteria causing the soft rot (Erwinia carotovora) to a preliminarily dissolved PSA culture medium (55 degrees Celsius) for subsequent thorough agitation, which was then spread on a plate for culturing at 25 degrees Celsius for 4 days, to examine the growth state. Subsequently, the formed colonies were examined according to the following three grades. • +: at the same level as the level of non-treated lot.
(§2) Plus or minus: apparently less than the colonies of the non-treated lot. • −: almost no colonies observed.

[2] = system: bacteria causing the soft rot (Erwinia carotovora); assay: Inhibition test of growth of bacteria causing soft rot, Reference Test Example 2; details: for formed colonies (growth state), grade: PSA medium, 27 degrees Celsius, 2 days
Excerpt: as §1, with “Inhibition test of growth of bacteria causing soft rot of potato An” for “An”, “azoxystrobin (Amistar-20” for “cyazofamid (RANMAN 400SC [trade name] manufactured by Ishihara Sangyo Kaisha, Ltd.), amisulbrom (LEIMAY”, “Syngenta Japan K.K.), penthiopyrad (GAIA WG [trade name], manufactured by Mitsui Chemicals Agro, Inc.), flusulfamide (SCABLOCK SC [trade name] manufactured by Mitsui Chemicals Agro, Inc.),” for “Nissan Chemical Industries, Ltd.)”, “27” for “25”, “2” for “4”
as §2

[3] = system: bacteria causing the soft rot (Erwinia carotovora); assay: Inhibition test of growth of bacteria causing soft rot, Reference Test Example 3; details: for formed colonies (growth state), grade: PSA medium, 27 degrees Celsius, 2 days
Excerpt: (§3) Inhibition test of growth of bacteria causing soft rot of potato An inhibition test of the growth of bacteria causing the soft rot was done, when a control agent was directly applied to the bacteria causing the soft rot. A given volume of each pesticide of triflumizol (TRIFUMIN WP [trade name] manufactured by Nippon Soda Co., Ltd.), chlorothalonil (Daconil 1000 [trade name], manufactured by Sumitomo Chemical Company, Limited) and streptomycin (Mycin Wettable powder [trade name] manufactured by Hokko Chemical Industry Co., Ltd.) was added together with a suspension of the bacteria causing the soft rot (Erwinia carotovora) to a preliminarily dissolved PSA culture medium (55 degrees Celsius) for subsequent thorough agitation, which was then spread on a plate for culturing at 27 degrees Celsius for 2 days, to examine the growth state. Subsequently, the formed colonies were examined according to the following three grades. • +: at the same level as the level of non-treated lot. Plus or minus: apparently less than the colonies of the non-treated lot. • −: almost no colonies observed.

[4] = system: bacteria causing the soft rot (Erwinia carotovora); assay: Inhibition test of growth of bacteria causing soft rot, Reference Test Example 4; details: for formed colonies (growth state), grade: PSA medium, 27 degrees Celsius, 2 days
Excerpt: as §3, with “An” for “Inhibition test of growth of bacteria causing soft rot of potato An”, “kresoxim-methyl (STROBY DF [trade name] manufactured by BASF), thiophanate methyl (Topsin M WP [trade name], manufactured by Nippon Soda Co., Ltd), boscalid (Cantus DF [trade name] manufactured by BASF), procymidone (Sumilex” for “triflumizol (TRIFUMIN”, “by” for “by Nippon Soda Co., Ltd.), chlorothalonil (Daconil 1000 [trade name], manufactured by”, “Agro Co., Ltd.)” for “Company, Limited)”

[5] = system: bacteria causing the soft rot (Erwinia carotovora); assay: Inhibition test of growth of bacteria causing soft rot, Reference Test Example 6; details: for formed colonies (growth state), grade: PSA medium, 27 degrees Celsius, 3 days
Excerpt: as §1, with “fludioxonil (Seibia FL” for “cyazofamid (RANMAN 400SC”, “Syngenta Japan K.K.), iminoctadine albesilate salt (Bellkute WP” for “Ishihara Sangyo Kaisha, Ltd.), amisulbrom (LEIMAY FLOWABLE”, “Nippon Soda Co., Ltd.), iprodione (Rovral WP [trade name] manufactured by Bayer Crop Science Co., Ltd.),” for “Nissan Chemical Industries, Ltd.)”, “27” for “25”, “3” for “4”
as §2

[6] = active ingredient concentration of 1 ppm
[7] = active ingredient concentration of 10 ppm

[H]/N=C(/N)N[C@H]1[C@H](O)[C@@H](O)[C@H](O[C@@H]2O[C@@H](C)[C@](O)(C=O)[C@H]2O[C@@H]2O[C@@H](CO)[C@H](O)[C@@H](O)[C@@H]2NC)[C@@H](N/C(N)=N\[H])[C@@H]1O [Streptomycin]
formed colonies (growth state), grade ([1]; 1 ppm active ingredient): −, − | formed colonies (growth state), grade ([1]; 10 ppm active ingredient): −, − | direct antibacterial activity against Erwinia carotovora (in words) [1, 6]: exerted a direct antibacterial activity | formed colonies (growth state), grade ([2]; 1 ppm active ingredient): −, − | formed colonies (growth state), grade ([2]; 10 ppm active ingredient): −, − | direct antibacterial activity against Erwinia carotovora (in words) [2, 6]: exerted a direct antibacterial activity | formed colonies (growth state), grade ([3]; 1 ppm active ingredient): +, ± | formed colonies (growth state), grade ([3]; 10 ppm active ingredient): −, − | direct antibacterial activity against Erwinia carotovora (in words) [3, 7]: exerted a direct antibacterial activity | formed colonies (growth state), grade ([4]; 1 ppm active ingredient): −, − | formed colonies (growth state), grade ([4]; 10 ppm active ingredient): −, − | direct antibacterial activity against Erwinia carotovora (in words) [4, 6]: exerted a direct antibacterial activity | formed colonies (growth state), grade ([5]; 1 ppm active ingredient): +, + | formed colonies (growth state), grade ([5]; 10 ppm active ingredient): −, ± | direct antibacterial activity against Erwinia carotovora (in words) [5, 7]: exerted a direct antibacterial activity
